Measurements reported in US8017775B2, “1-2-dihydroquinoline derivative having glucocorticoid receptor binding activity” (Santen Pharmaceutical Co., Ltd., priority 2005, dated 2011).

Each compound was assayed against T1, Recombinant human GR (Homo sapiens, UniProt P04150) (assay: GR competitor assay by fluorescence polarization (GR binding ratio)). Conditions: positive control 2 mM dexamethasone, a GR binding ratio of 100% or more is indicated by 100%.
T1 construct: purchased Invitrogen P2816
T1 sequence (P04150 1-777): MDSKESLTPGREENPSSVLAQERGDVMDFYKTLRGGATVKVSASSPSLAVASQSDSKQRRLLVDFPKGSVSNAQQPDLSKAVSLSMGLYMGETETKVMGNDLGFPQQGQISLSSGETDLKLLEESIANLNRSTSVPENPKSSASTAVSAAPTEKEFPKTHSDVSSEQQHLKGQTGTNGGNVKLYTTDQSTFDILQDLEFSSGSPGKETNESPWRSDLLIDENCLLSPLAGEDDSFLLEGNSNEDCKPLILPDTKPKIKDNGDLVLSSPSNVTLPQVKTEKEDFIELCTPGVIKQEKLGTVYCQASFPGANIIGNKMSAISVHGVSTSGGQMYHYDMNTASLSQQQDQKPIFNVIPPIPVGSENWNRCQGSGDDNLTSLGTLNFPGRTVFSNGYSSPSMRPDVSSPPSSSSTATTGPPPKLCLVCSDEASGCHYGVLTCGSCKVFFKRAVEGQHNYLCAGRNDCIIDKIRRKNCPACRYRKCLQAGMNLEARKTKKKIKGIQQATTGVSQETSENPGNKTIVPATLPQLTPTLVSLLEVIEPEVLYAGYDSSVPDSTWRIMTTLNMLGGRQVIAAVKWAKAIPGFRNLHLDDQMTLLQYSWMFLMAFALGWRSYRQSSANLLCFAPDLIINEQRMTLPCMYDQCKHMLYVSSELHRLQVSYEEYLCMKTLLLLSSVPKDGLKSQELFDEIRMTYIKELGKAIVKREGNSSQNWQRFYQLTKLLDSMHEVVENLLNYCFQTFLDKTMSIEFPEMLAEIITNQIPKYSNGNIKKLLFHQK
Protocol: 1. Evaluation Test for Binding Activity to Glucocorticoid Receptor (hereinafter referred to as “GR”)
In order to evaluate a binding activity to GR, a receptor competitor assay was carried out by a fluorescence polarization method. In the assay, a GR competitor assay kit (manufactured by Invitrogen, cat No. P2816) was used, and a procedure was carried out according to the protocol attached to the kit. Hereinafter, the specific method will be described.
GR screening buffer: A buffer containing 10 mM potassium phosphate (pH 7.4), 20 mM sodium molybdate (Na2MoO4), 0.1 mM ethylene diamine tetraacetic acid (EDTA), 5 mM dithiothreitol (DTT), 0.1 mM stabilizing peptide and 2% dimethylsulfoxide was prepared.
4×GS1 solution: Fluormone™ GS1, which is a fluorescent glucocorticoid ligand, was diluted with GR screening buffer, whereby a 4 nM solution was prepared.
4×GR solution: Recombinant human GR was diluted with GR screening buffer, whereby a 16 nM solution was prepared.
After a test compound was dissolved in dimethylsulfoxide, the resulting solution was diluted with GR screening buffer, whereby a 20 μM test compound solution was prepared.
1) The test compound solution was added in an amount of 25 μL or 10 μL into each well of a 96-well or 384-well plate, and then, 4×GS1 solution and 4×GR solution were added in an amount of 12.5 μL or 5 μL into each well, respectively.
2) The plate was incubated in a dark place at room temperature for 2 to 4 hours.
3) By using a multimode plate reader, Analyst™ HT (manufactured by LJL Biosystems), fluorescence polarization of each well was measured. As the blank, a well containing GR screening buffer in place of the test compound and 4×GS1 solution was used.
4) The same procedure as that in the above 1) to 3) was carried out except that GR screening buffer was used in place of the test compound solution, and the obtained result was taken as the negative control.
5) The same procedure as that in the above 1) to 3) was carried out except that 2 mM dexamethasone was used in place of the test compound solution, and the obtained result was taken as the positive control.
A GR binding ratio (%) was calculated from the following equation.
GR binding ratio (%)=100×[1−(fluorescence polarization of test compound solution−fluorescence polarization of positive control solution)/(fluorescence polarization of negative control solution−fluorescence polarization of positive control solution)]

Row | SMILES | GR Binding ratio (%)
1 | COc1cc(F)ccc1-c1ccc2c(c1COC(=O)c1ccc(Br)s1)C(C)=CC(C)(C)N2 [Compound 12-25, 5-[(5-Bromothiophen-2-yl)carbonyloxymethyl]-6-(4-fluoro-2-methoxyphenyl)-2,2,4-trimethyl-1,2-dihydroquinoline] | ≥ 100%
2 | COc1ccc(C(=O)OCc2c(-c3ccc(F)cc3OC)ccc3c2C(C)=CC(C)(C)N3)s1 [Compound 12-33, 6-(4-Fluoro-2-methoxyphenyl)-5-[(5-methoxythiophen-2-yl)carbonyloxymethyl]-2,2,4-trimethyl-1,2-dihydroquinoline] | ≥ 100%
3 | COc1cc(F)ccc1-c1ccc2c(c1COC(=O)c1ccc3c(c1)OCO3)C(C)=CC(C)(C)N2 [Compound 12-42, 5-[(1,3-Benzodioxol-5-yl)carbonyloxymethyl]-6-(4-fluoro-2-methoxyphenyl)-2,2,4-trimethyl-1,2-dihydroquinoline] | 99%
4 | COc1cc(F)c(F)cc1-c1ccc2c(c1COC(=O)c1cccs1)C(C)=CC(C)(C)N2 [Compound 12-53, 6-(4,5-Difluoro-2-methoxyphenyl)-5-[(thiophen-2-yl)carbonyloxymethyl]-2,2,4-trimethyl-1,2-dihydroquinoline] | ≥ 100%
5 | COc1cc(F)c(F)cc1-c1ccc2c(c1COC(=O)c1ccc(C)s1)C(C)=CC(C)(C)N2 [Compound 12-54, 6-(4,5-Difluoro-2-methoxyphenyl)-5-[(5-methylthiophen-2-yl)carbonyloxymethyl]-2,2,4-trimethyl-1,2-dihydroquinoline] | ≥ 100%
6 | CCOc1cc(F)ccc1-c1ccc2c(c1COC(=O)c1ccc(C)s1)C(C)=CC(C)(C)N2 [Compound 12-58, 6-(2-Ethoxy-4-fluorophenyl)-5-[(5-methylthiophen-2-yl)carbonyloxymethyl]-2,2,4-trimethyl-1,2-dihydroquinoline] | ≥ 100%
7 | COc1ccc(C)cc1-c1ccc2c(c1COC(=O)c1ccc(C)s1)C(C)=CC(C)(C)N2 [Compound 12-67, 6-(2-Methoxy-5-methylphenyl)-5-(5-methylthiophen-2-yl-carbonyloxymethyl)-2,2,4-trimethyl-1,2-dihydroquinoline] | ≥ 100%
8 | COc1ccc(Cl)cc1-c1ccc2c(c1COC(=O)c1ccc(C)s1)C(C)=CC(C)(C)N2 [Compound 12-69, 6-(5-Chloro-2-methoxyphenyl)-5-(5-methylthiophen-2-ylcarbonyloxymethyl)-2,2,4-trimethyl-1,2-dihydroquinoline] | ≥ 100%
9 | COc1ccc(C(F)(F)F)cc1-c1ccc2c(c1COC(=O)c1ccc(C)s1)C(C)=CC(C)(C)N2 [Compound 12-73, 6-(2-Methoxy-5-trifluoromethylphenyl)-5-(5-methylthiophen-2-ylcarbonyloxymethyl)-2,2,4-trimethyl-1,2-dihydroquinoline] | ≥ 100%
10 | COc1ccc(C(=O)OCc2c(-c3cc(F)ccc3OC)ccc3c2C(C)=CC(C)(C)N3)cc1 [Compound 12-75, 6-(5-Fluoro-2-methoxyphenyl)-5-(4-metoxybenzoyloxymethyl)-2,2,4-trimethyl-1,2-dihydroquinoline] | ≥ 100%
11 | COc1ccc(F)cc1-c1ccc2c(c1COC(=O)c1ccc(C)s1)C(C)=CC(C)(C)N2 [Compound 12-76, 6-(5-Fluoro-2-methoxyphenyl)-5-(5-methylthiophen-2-ylcarbonyloxymethyl)-2,2,4-trimethyl-1,2-dihydroquinoline] | ≥ 100%
12 | COC(=O)Cc1ccccc1OCc1c(-c2ccc(F)cc2OC)ccc2c1C(C)=CC(C)(C)N2 [Compound 14-1, 6-(4-Fluoro-2-methoxyphenyl)-5-(2-methoxycarbonylmethylphenoxymethyl)-2,2,4-trimethyl-1,2-dihydroquinoline] | ≥ 100%
13 | COc1ccc(C)cc1-c1ccc2c(c1COc1cc(F)ccc1C)C(C)=CC(C)(C)N2 [Compound 14-11, 5-(5-Fluoro-2-methylphenoxymethyl)-6-(2-methoxy-5-methylphenyl)-2,2,4-trimethyl-1,2-dihydroquinoline] | ≥ 100%
14 | COc1ccc(Cl)cc1-c1ccc2c(c1COc1cc([N+](=O)[O-])ccc1C)C(C)=CC(C)(C)N2 [Compound 14-12, 6-(5-Chloro-2-methoxyphenyl)-5-(2-methyl-5-nitrophenoxymethyl)-2,2,4-trimethyl-1,2-dihydroquinoline] | ≥ 100%
15 | COc1ccc(Cl)cc1-c1ccc2c(c1COc1cc(F)ccc1C)C(C)=CC(C)(C)N2 [Compound 14-13, 6-(5-Chloro-2-methoxyphenyl)-5-(5-fluoro-2-methylphenoxymethyl)-2,2,4-trimethyl-1,2-dihydroquinoline] | ≥ 100%
16 | COc1ccc(C(F)(F)F)cc1-c1ccc2c(c1COc1cc(F)ccc1C)C(C)=CC(C)(C)N2 [Compound 14-15, 5-(5-Fluoro-2-methylphenoxymethyl)-6-(2-methoxy-5-trifluoromethylphenyl)-2,2,4-trimethyl-1,2-dihydroquinoline] | 99%
17 | C=CCc1ccccc1OCc1c(-c2cc(C)ccc2OC)ccc2c1C(C)=CC(C)(C)N2 [Compound 14-21, 5-(2-Allylphenoxymethyl)-6-(2-methoxy-5-methylphenyl)-2,2,4-trimethyl-1,2-dihydroquinoline] | 99%
18 | COc1ccc(F)cc1-c1ccc2c(c1COc1cc(C)ccc1C)C(C)=CC(C)(C)N2 [Compound 14-40, 5-(2,5-Dimethylphenoxymethyl)-6-(5-fluoro-2-methoxyphenyl)-2,2,4-trimethyl-1,2-dihydroquinoline] | ≥ 100%
19 | COc1ccc(F)cc1-c1ccc2c(c1COc1cc(Cl)ccc1C)C(C)=CC(C)(C)N2 [Compound 14-41, 5-(5-Chloro-2-methylphenoxymethyl)-6-(5-fluoro-2-methoxyphenyl)-2,2,4-trimethyl-1,2-dihydroquinoline] | ≥ 100%
20 | COc1ccc(F)cc1-c1ccc2c(c1COc1cc(F)ccc1C)C(C)=CC(C)(C)N2 [Compound 14-43, 6-(5-Fluoro-2-methoxyphenyl)-5-(5-fluoro-2-methylphenoxymethyl)-2,2,4-trimethyl-1,2-dihydroquinoline] | ≥ 100%
21 | C=CCc1ccccc1OCc1c(-c2cc(F)ccc2OC)ccc2c1C(C)=CC(C)(C)N2 [Compound 14-45, 5-(2-Allylphenoxymethyl)-6-(5-fluoro-2-methoxyphenyl)-2,2,4-trimethyl-1,2-dihydroquinoline] | ≥ 100%
22 | C=CCc1ccccc1OCc1c(-c2cc(Cl)ccc2OC)ccc2c1C(C)=CC(C)(C)N2 [Compound 14-47, 5-(2-Allylphenoxymethyl)-6-(5-chloro-2-methoxyphenyl)-2,2,4-trimethyl-1,2-dihydroquinoline] | ≥ 100%
23 | COc1ccc([N+](=O)[O-])cc1-c1ccc2c(c1COc1cc(F)ccc1C)C(C)=CC(C)(C)N2 [Compound 14-48, 5-(5-Fluoro-2-methylphenoxymethyl)-6-(2-methoxy-5-nitrophenyl)-2,2,4-trimethyl-1,2-dihydroquinoline] | ≥ 100%
24 | COc1ccc(OCc2ccccc2)cc1-c1ccc2c(c1COc1cc(F)ccc1C)C(C)=CC(C)(C)N2 [Compound 15-2, 6-(5-Benzyloxy-2-methoxyphenyl)-5-(5-fluoro-2-methylphenoxymethyl)-2,2,4-trimethyl-1,2-dihydroquinoline] | 76%
